Patent US20250387357A1 (SpringWorks Therapeutics, Inc., priority 2024, published 2025)

Assays:
[1] = Pharmacokinetic parameters and characteristics of mirdametinib (Table A); parameters: species or system human; settings: in vivo
UGT and CES enzymes = test: Metabolism, primary pathway; settings: full wording over r33-r36: Metabolism involves glucuronidation and oxidation via UGT and CES enzymes

O=C(NOC[C@H](O)CO)c1ccc(F)c(F)c1Nc1ccc(I)cc1F (single isomer, unassigned) [mirdametinib]
Excretion: Radioactivity in feces [1]: In feces: 27% | Excretion: Radioactivity in urine [1]: In urine: 68% | Excretion: Unchanged mirdametinib in urine [1]: In urine: 0.7% | Excretion: Unchanged mirdametinib in urine and feces [1]: In urine and feces: 9% | Metabolism primary pathway (UGT and CES enzymes): Metabolism involves
